Reference: article PMC11801715, “Activating PKC-ε induces HIV expression with improved tolerability” (PLOS Pathogens, 2025)
Several values for one entry are separate records, joined by “and”; a condition that tells them apart may be missing. Equal values may be shown once. Read-outs that look alike come from different tables or passages of the source.

How the values were obtained:
[1] = tested on: latent HIV in total CD4+ T cells; experiment: microbe, parasite or virus in culture; type: cell-based, HIV-1; details: for EC50: Human immunodeficiency virus 1, CD4+ T
Description: Peripheral blood mononuclear cells and CD4^+ T cells used for evaluating PKC agonist and inhibitor molecules were isolated from leukopaks of selected participants as described previously. Isolated CD4^+ T cells (5×10^6 cells/well) were added to 24-well tissue culture plates in 2.5 mL of RPMI medium containing 100 nM each of elvitegravir and efavirenz. Cells were stimulated with DMSO (vehicle control) or the indicated concentrations of PKC agonist molecules. Cells were pretreated with PKC isoform inhibitors (Selleck Chemicals) for 1 hour before addition of PKC agonist at indicated concentrations and maintained at 37 °C, 5% CO2 for 3 days. Cell supernatants from each well were analyzed using the Cobas […] system for quantification of HIV-1 RNA using the HIV-1 test v2.0 kit (Roche Diagnostics).

[2] = tested on: platelets (CD62P+) and CD4+ T cells (CD69+) in whole blood; experiment: In vitro whole blood platelet and CD4+ T-cell activation assay; type: cell-based, human; details: for CD62P EC50/CD69 EC50 ratio Geomean: whole blood from healthy donors, platelets to CD4+ T cells
Description: We developed a novel human whole blood assay to determine whether other PKC agonists also activate platelets at the same concentrations that are required to activate CD4^+ T cells. Platelet activation was assessed by CD62P (P-selectin), which traffics to the cell surface upon activation and α-granule release. CD4^+ T-cell activation was assessed by CD69 upregulation (Fig 7A).
Whole blood was drawn into sodium citrate tubes using a 21-gauge needle. To prevent potential interference from tissue thromboplastin released during venipuncture, which could affect the accuracy of coagulation testing, the first 2 mL of blood drawn was discarded. PKC agonist molecules were dispensed in a dilution series into 80 μL of blood per well in a flat-bottom 96-well plate and mixed gently. Care was taken not to introduce any mechanical stress-related activation of platelets. […] The remaining 72 μL of blood in the first plate was incubated for 1 additional hour and stained with anti-human CD3 (UCHT1), CD4 (SK3), and CD69 (FN50) (30 minutes in the dark). Red blood cell lysis and fixing was done using BD lyse/fix solution. Stained cells were acquired on BD LSR Fortessa II after washing. […] EC50 values for platelet and CD4 T-cell activation for each agonist was obtained by nonlinear regression curve fit using GraphPad Prism version 9.3.0.

[3] = tested on: classical isoforms PKC-α, PKC-β1, PKC-β2; experiment: Cell fractionation and western blotting in CD4+ T cells; type: cell-based; details: 1 hour
Description: (§1) CD4^+ T cells treated with C-232A for 1 hour in a concentration-dependent manner were separated into cytoplasmic and membrane protein fractions using a cell fractionation kit (Cell Signaling Technology, catalog 9038) and protein concentrations quantified using a Pierce BCA assay (Thermo Fisher Scientific, catalog 23227). 4–6 μg of fractionated total protein lysate was fractionated on SDS-PAGE gel using Peggy Sue (Protein Simple). The resulting area under the curve was normalized against β-actin.
(§2) (A) Western blot of PKC isoforms θ, α, β2, and β1 in cytoplasmic and membrane fractions of CD4^+ T cells treated with C-232A. […] Area under the peak generated by western blot analysis of membrane-associated PKC isoforms after treatment and plotted using GraphPad software. AUC plots were used to generate EC50 values (D). (PNG)

PKC-θ = PKC-θ (Homo sapiens, UniProt Q04759); experiment: as above; type: cell-based; details: 1 hour
Description: as §1, §2

PKC-ε = biological target: T1, PKC-ε (Homo sapiens, UniProt Q02156); experiment: PKC isoform translocation in A549-tGFP cells; type: cell-based; design: host or cells: A549; details: for EC50: A549-tGFP cells, 60 minutes; for ε selectivity, PKC-ε: EC50 of PKC-ε divided by EC50 of PKC-ε
T1 sequence (Q02156 1-737): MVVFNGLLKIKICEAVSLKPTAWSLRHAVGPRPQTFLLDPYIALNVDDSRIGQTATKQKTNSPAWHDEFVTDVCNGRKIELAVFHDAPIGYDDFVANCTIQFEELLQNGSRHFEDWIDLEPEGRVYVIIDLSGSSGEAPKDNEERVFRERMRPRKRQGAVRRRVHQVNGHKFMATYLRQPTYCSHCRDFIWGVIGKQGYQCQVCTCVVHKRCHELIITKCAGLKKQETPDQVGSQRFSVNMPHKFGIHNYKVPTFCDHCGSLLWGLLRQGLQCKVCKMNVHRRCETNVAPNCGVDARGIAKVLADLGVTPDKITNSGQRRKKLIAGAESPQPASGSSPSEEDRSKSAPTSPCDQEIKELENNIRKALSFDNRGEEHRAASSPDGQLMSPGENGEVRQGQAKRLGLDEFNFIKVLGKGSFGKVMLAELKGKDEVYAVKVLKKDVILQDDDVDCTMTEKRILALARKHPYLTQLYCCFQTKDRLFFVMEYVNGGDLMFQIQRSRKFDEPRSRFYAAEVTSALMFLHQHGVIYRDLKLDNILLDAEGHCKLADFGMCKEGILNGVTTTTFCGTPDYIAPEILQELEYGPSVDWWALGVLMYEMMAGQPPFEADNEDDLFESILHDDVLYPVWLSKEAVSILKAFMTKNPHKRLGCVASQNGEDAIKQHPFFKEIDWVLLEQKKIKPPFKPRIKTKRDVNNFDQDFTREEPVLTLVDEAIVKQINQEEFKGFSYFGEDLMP
Description: Using these findings we embarked on new designs for DAG-lactones with additional substituents from the ester moiety in combination with a few olefin substituents. A description of this effort is reported elsewhere.
Cellular translocation of PKC isoforms upon activation was determined in 8 A549 cell lines, each expressing a single PKC isoform fused to tGFP (PhenoVista Biosciences). Cells were plated in 384-well plates (80 μL/well) at 10^5 cells/mL in RPMI with 10% FBS and rested overnight. PKC agonist(s) were serially diluted at 1:3 steps in DMSO and added to the cells. After 60 minutes in an incubator at 37 °C, 5% CO2, cells were stained with Hoechst-33342 and fixed with 2% paraformaldehyde for 30 minutes at 4 °C. Cells were then stained with wheat germ agglutinin conjugated to AlexaFluor647 (WGA-647) for 10 minutes at 4 °C, washed to remove excess dye and imaged with Cellomics Array Scan (Thermo Fisher) at room temperature (RT). Images were analyzed using Cellomics automated image analysis algorithm. Plasma membrane translocation was quantified using the ratio between the average fluorescence in the areas at the cell edge defined by WGA-647 and the cytoplasm region.

CD69 on CD4+ T cells = experiment: CD69 expression levels in rhesus blood (flow cytometry); type: in vivo, rhesus macaque
Description: CD69 protein expression levels in whole blood were measured using flow cytometry. Samples, collected in K2EDTA tubes, were surface stained with anti-human monoclonal antibodies against markers CD3 (UCHT1), CD4 (SK3), and activation marker CD69 (FN50) for 30 minutes at RT. Red blood cells were lysed and cells were fixed (BD Lyse/Fix buffer) according to the manufacturer’s instructions. All data were acquired on an LSR II (BD Biosciences) and were analyzed using FlowJo software.

Chain of PKC-θ (Q04759 whole entry): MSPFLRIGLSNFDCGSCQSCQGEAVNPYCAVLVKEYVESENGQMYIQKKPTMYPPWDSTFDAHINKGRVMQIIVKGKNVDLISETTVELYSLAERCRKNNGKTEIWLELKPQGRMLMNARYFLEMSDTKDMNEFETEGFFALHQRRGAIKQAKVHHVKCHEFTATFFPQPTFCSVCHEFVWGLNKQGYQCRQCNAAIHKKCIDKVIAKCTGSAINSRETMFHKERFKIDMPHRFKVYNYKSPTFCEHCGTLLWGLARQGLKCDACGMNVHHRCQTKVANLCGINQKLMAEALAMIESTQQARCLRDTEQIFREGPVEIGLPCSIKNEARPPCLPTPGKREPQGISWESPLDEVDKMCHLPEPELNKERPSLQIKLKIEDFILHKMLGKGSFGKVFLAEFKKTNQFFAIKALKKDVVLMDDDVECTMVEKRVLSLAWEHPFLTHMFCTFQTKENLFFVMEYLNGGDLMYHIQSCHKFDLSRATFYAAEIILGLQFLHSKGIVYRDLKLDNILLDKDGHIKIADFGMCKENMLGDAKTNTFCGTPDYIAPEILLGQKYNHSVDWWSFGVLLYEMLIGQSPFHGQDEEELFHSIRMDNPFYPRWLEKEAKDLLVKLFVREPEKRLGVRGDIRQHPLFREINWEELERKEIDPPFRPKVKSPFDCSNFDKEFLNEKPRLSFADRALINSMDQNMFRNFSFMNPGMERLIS

Structure (SMILES)	EC50 ([1]; read-out: EC50, activation of HIV expression)	CD62P EC50/CD69 EC50 ratio Geomean [2]	translocation of classical isoforms α, β1, β2 [3]	translocation of PKC-θ from cytoplasm to cell membrane (PKC-θ)	EC50 (PKC-ε)	ε selectivity, PKC-ε (PKC-ε)	expression of CD69 on CD4+ T cells (CD69 on CD4+ T cells; 1 mg/kg, at peak)	time of peak CD69 expression postdose (CD69 on CD4+ T cells; rhesus monkey, in vivo)	HIV RNA Fold over DMSO Geo.mean ([1]; 1.1 μM (Fig 10C))	EC50 ([1]; 72 h, read-out: HIV RNA EC50)	more potent for T-cell activation relative to platelet activation ([2]; whole blood)	improvement relative to the other classes of PKC agonists tested ([2]; whole blood, T-cell versus platelet potency)	more potent for PKC-ε translocation compared with PKC-η and PKC-θ (PKC-ε; A549-PKC-tGFP reporter cells)	more potent for PKC-ε translocation than PKC-δ (PKC-ε; A549-PKC-tGFP reporter cells)
Cc1ccc(C#Cc2ccc3oc(CC(C)(C)C(=O)OCC4(CO)CC(=CCC(CC(C)C)CC(C)C)C(=O)O4)cc3c2)cc1 (centres unmarked) [C-232A]	0.5 µM	1.7	did not translocate classical isoforms α, β1, or β2	translocated PKC-θ from the cytoplasm to the cell membrane in a dose-dependent manner	0.058 µM	1	59%	4 to 8 h	–	–	–	–	–	–
Cc1ccc(C#Cc2ccc(C(=O)OCC3(CO)Cc4c(-c5ccccc5)ccnc4O3)cc2)cc1 (centres unmarked) [C-233]	–	5.1	–	–	0.24 µM	1	–	–	9.2 fold and 9 fold	0.296 µM	5 fold	2.4- to 3 fold	5- to 6 fold	~200 fold
